# Key:
# Assay type in all cases: cell-based
# CHRM2 [1] = target: T1, CHRM2 (Homo sapiens, UniProt P08172); assay: GPCR reactivity screen, PathHunter β-Arrestin, antagonist assay CHRM2; conditions: for antagonist activity against CHRM2 (in words): GPCR reactivity screen; for CHRM2 (Antagonist) percent inhibition: antagonist mode, agonist challenge at EC80
# T1 sequence (P08172 1-466): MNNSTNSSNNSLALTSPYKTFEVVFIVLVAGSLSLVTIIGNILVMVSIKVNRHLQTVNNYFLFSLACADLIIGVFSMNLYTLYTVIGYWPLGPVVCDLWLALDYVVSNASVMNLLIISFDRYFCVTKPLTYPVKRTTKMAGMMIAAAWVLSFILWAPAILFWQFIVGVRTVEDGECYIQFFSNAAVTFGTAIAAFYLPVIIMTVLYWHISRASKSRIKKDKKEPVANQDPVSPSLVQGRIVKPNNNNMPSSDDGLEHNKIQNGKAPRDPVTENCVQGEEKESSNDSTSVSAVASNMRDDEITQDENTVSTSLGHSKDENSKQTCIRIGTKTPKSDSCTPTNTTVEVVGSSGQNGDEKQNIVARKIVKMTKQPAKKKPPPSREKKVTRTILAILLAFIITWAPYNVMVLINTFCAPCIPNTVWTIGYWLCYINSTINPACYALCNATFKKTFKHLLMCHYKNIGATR
# Method: (§1) To evaluate the role specific cannabinoid compounds play in the neurological signaling pathway for itching, a GPCR reactivity assay was performed to determine the reactivity of 19 cannabinoid compounds to each of CHRM2, EDG3, and MRGPRX2. The evaluated cannabinoid compounds were: CBN, THCV, CBDVA, CBG, CBL, CBC, CBDV, CBDA, CBD, CBGA, (+)-CBD, CBG-C4, CBD-C1, CBD-C2, CBGV, CBGA-C4, CBGVA, CBCA, and CBLA. Acetylcholine was used as the control for CHRM2, sphingosine-1-phosphate was used as the control for EDG3; and cortistatin 14 was used as the control for MRGPRX2.
# (§2) In each of the antagonist assays, PathHunter® cell lines were removed from a freezer stock and seeded at a volume of 20 μL into white walled, 384-well microplates and incubated at 37° C. Each cell was pre-incubated with an antagonist followed by an agonist challenge at the EC80 concentration. Cells were then diluted to generate a 5× sample in assay buffer. 5 μL of the 5× sample was then added to cells and incubated at 37° C. for 30 minutes. Finally, 5 μL of 6×EC80 agonist in assay buffer were added to the cells and incubated at 37° C. for 90 minutes or 180 minutes. The assay signal was generated through addition of 12.5 μL or 15 μL (50% V/V) of a detection reagent cocktail followed by a one hour incubation time at room temperature. Microplates were read following signal generation with a PerkinElmer Envision™ (PerkinElmer Inc., Waltham, Mass.) for chemiluminescent signal detection. Reactivity was analyzed using the CBIS data analysis suite (ChemInnovation, CA) where RLU refers to the raw measured values. The percent inhibition was calculated using the formula: % Inhibition=100%*(1−mean RLU of test sample−mean RLU of control)/(mean RLU of EC80 control−mean RLU of vehicle control).
# (§3) As used herein, strong activity against a receptor is considered a percent activity of about 42% or higher. Higher results for antagonism against CHRM2, EDGE, and MRGPRX2 are considered better. It is further considered better when a cannabinoid inhibits more than one of the receptors.
# EDG3 [2] = target: T2, EDG3 (Homo sapiens, UniProt Q99500); assay: GPCR reactivity screen, PathHunter β-Arrestin, agonist assay EDG3; set-up: concentration or dose not given beside the values; conditions: agonist mode; control sphingosine-1-phosphate
# Method: as §1
# (§4) A total of six assays were run. Specifically, agonist and antagonist assays were run for each of CHRM2, EDG3, and MRGPRX2. In each of the three agonist assays, PathHunter® cell lines were removed from a freezer stock and seeded at a volume of 20 μL into white walled, 384-well microplates and incubated at 37° C. Each cell was incubated with a sample to induce a response and then diluted to generate a 5× sample in assay buffer. 5 μL of the 5× sample was then added to cells and incubated at 37° C. for 90 or 180 minutes. The final assay concentration was 1%. The assay signal was generated through addition of 12.5 μL or 15 μL (50% V/V) of a detection reagent cocktail followed by a one hour incubation time at room temperature. Microplates were read following signal generation with a PerkinElmer Envision™ (PerkinElmer Inc., Waltham, Mass.) for chemiluminescent signal detection. Reactivity was analyzed using the CBIS data analysis suite (ChemInnovation, CA) where RLU refers to the raw measured values. The percent activity was then calculated using the formula: % Activity=100%*(mean RLU of test sample−mean RLU of control)/(mean max control ligand−mean RLU of vehicle control).
# as §3
# MRGPRX2 [3] = target: T3, MRGPRX2 (Homo sapiens, UniProt Q96LB1); assay: GPCR reactivity screen, PathHunter β-Arrestin, agonist assay MRGPRX2; conditions: agonist mode; control cortistatin 14
# T3 sequence (Q96LB1 1-330): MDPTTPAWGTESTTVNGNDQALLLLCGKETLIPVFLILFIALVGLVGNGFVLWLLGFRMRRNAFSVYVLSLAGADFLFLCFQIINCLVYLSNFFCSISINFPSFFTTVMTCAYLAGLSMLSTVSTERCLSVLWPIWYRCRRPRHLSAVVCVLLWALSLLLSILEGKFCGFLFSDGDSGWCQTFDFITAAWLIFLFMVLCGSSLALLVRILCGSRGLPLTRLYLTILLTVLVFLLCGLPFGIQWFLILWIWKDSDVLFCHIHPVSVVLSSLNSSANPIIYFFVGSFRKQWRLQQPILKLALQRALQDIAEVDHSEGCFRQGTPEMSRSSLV
# Method: as §1, §4, §3
# CHRM2 [4] = target: T1, CHRM2; assay: GPCR reactivity screen, PathHunter β-Arrestin, agonist assay CHRM2; set-up: concentration or dose not given beside the values; conditions: agonist mode; control acetylcholine
# Method: as §1, §4, §3
# CHRM2 [5] = target: T1, CHRM2; assay: IC50 antagonist activity screen, PathHunter β-Arrestin, CHRM2; conditions: maximum of IC50 curve
# Method: as §2
# as §3, with “IC50 curves were measured using the same GPCR assay, PathHunter® β-Arrestin from Eurofins DiscoverX Products (Fremont, Calif.), as the GPCR reactivity screen. As” for “As”, “maximum” for “percent”
# MRGPRX2 [6] = target: T3, MRGPRX2; assay: IC50 antagonist activity screen, PathHunter β-Arrestin, MRGPRX2; conditions: maximum of IC50 curve
# Method: as §2
# as §3, with “IC50 curves were measured using the same GPCR assay, PathHunter® β-Arrestin from Eurofins DiscoverX Products (Fremont, Calif.), as the GPCR reactivity screen. As” for “As”, “maximum” for “percent”
# MRGPRX2 [7] = target: T3, MRGPRX2; assay: GPCR reactivity screen, PathHunter β-Arrestin, antagonist assay MRGPRX2; conditions: for antagonist activity against MRGPRX2 (in words): GPCR reactivity screen; for MRGPRX2 (Antagonist) percent inhibition: antagonist mode, agonist challenge at EC80
# Method: as §1, §2, §3
# EDG3 [8] = target: T2, EDG3; assay: IC50 antagonist activity screen, PathHunter β-Arrestin, EDG3; conditions: maximum of IC50 curve
# Method: as §2
# as §3, with “IC50 curves were measured using the same GPCR assay, PathHunter® β-Arrestin from Eurofins DiscoverX Products (Fremont, Calif.), as the GPCR reactivity screen. As” for “As”, “maximum” for “percent”
# EDG3 [9] = target: T2, EDG3; assay: GPCR reactivity screen, PathHunter β-Arrestin, antagonist assay EDG3; conditions: for antagonist activity against EDG3 (in words): GPCR reactivity screen; for EDG3 (Antagonist) percent inhibition: antagonist mode, agonist challenge at EC80
# Method: as §1, §2, §3
# T2 sequence (Q99500 whole entry): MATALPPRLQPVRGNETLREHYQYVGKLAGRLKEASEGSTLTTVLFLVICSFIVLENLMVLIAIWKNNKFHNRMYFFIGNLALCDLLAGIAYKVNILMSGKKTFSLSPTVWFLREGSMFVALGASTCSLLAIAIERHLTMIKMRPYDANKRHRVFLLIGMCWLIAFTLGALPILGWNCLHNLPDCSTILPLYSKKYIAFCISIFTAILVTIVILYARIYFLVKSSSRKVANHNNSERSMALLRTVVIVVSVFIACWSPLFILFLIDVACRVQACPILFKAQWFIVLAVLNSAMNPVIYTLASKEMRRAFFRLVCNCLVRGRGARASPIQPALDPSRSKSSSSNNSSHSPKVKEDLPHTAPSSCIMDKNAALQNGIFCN
molecule,measurement,setting,value
"CCCCCc1cc(O)c2c(c1)OC(C)(CCC=C(C)C)C=C2 (stereo not drawn) [CBC, cannabichromene]",antagonist activity against CHRM2 (in words),CHRM2 [1],strong to moderate antagonist activity
same,CHRM2 (Antagonist) percent inhibition,CHRM2 [1],89%
same,EDG3 (Agonist) percent activity,EDG3 [2],−1%
same,MRGPRX2 (Agonist) percent activity,MRGPRX2 [3],9%
same,CHRM2 (Agonist) percent activity,CHRM2 [4],12%
same,maximum inhibition (antagonism) CHRM2,CHRM2 [5],85%
same,maximum inhibition (antagonism) MRGPRX2,MRGPRX2 [6],91%
same,antagonist activity against MRGPRX2 (in words),MRGPRX2 [7],strong to moderate antagonist activity
same,MRGPRX2 (Antagonist) percent inhibition,MRGPRX2 [7],89%
same,maximum inhibition (antagonism) EDG3,EDG3 [8],43%
same,antagonist activity against EDG3 (in words),EDG3 [9],strong to moderate antagonist activity
same,EDG3 (Antagonist) percent inhibition,EDG3 [9],48%
(+)-cannabidiol [(+)-CBD],antagonist activity against CHRM2 (in words),CHRM2 [1],strong to moderate antagonist activity
same,CHRM2 (Antagonist) percent inhibition,CHRM2 [1],67%
same,EDG3 (Agonist) percent activity,EDG3 [2],21%
same,MRGPRX2 (Agonist) percent activity,MRGPRX2 [3],9%
same,CHRM2 (Agonist) percent activity,CHRM2 [4],7%
same,maximum inhibition (antagonism) CHRM2,CHRM2 [5],62%
same,maximum inhibition (antagonism) MRGPRX2,MRGPRX2 [6],94%
same,antagonist activity against MRGPRX2 (in words),MRGPRX2 [7],strong to moderate antagonist activity
same,MRGPRX2 (Antagonist) percent inhibition,MRGPRX2 [7],92%
same,maximum inhibition (antagonism) EDG3,EDG3 [8],24%
same,antagonist activity against EDG3 (in words),EDG3 [9],strong to moderate antagonist activity
same,EDG3 (Antagonist) percent inhibition,EDG3 [9],55%
"C=C(C)[C@@H]1CCC(C)=C[C@H]1c1c(O)cc(CCCCC)cc1O [CBD, cannabidol]",antagonist activity against CHRM2 (in words),CHRM2 [1],antagonist activity
same,CHRM2 (Antagonist) percent inhibition,CHRM2 [1],81%
same,EDG3 (Agonist) percent activity,EDG3 [2],2%
same,MRGPRX2 (Agonist) percent activity,MRGPRX2 [3],11%
same,CHRM2 (Agonist) percent activity,CHRM2 [4],12%
same,maximum inhibition (antagonism) CHRM2,CHRM2 [5],75%
same,maximum inhibition (antagonism) MRGPRX2,MRGPRX2 [6],96%
same,antagonist activity against MRGPRX2 (in words),MRGPRX2 [7],antagonist activity
same,MRGPRX2 (Antagonist) percent inhibition,MRGPRX2 [7],85%
same,maximum inhibition (antagonism) EDG3,EDG3 [8],30%
same,EDG3 (Antagonist) percent inhibition,EDG3 [9],35%
"CCCCCc1cc(O)c(C/C=C(\C)CCC=C(C)C)c(O)c1 [CBG, cannabigerol]",CHRM2 (Antagonist) percent inhibition,CHRM2 [1],20%
same,EDG3 (Agonist) percent activity,EDG3 [2],8%
same,MRGPRX2 (Agonist) percent activity,MRGPRX2 [3],2%
same,CHRM2 (Agonist) percent activity,CHRM2 [4],0%
same,maximum inhibition (antagonism) CHRM2,CHRM2 [5],13%
same,maximum inhibition (antagonism) MRGPRX2,MRGPRX2 [6],92%
same,antagonist activity against MRGPRX2 (in words),MRGPRX2 [7],antagonist activity
same,MRGPRX2 (Antagonist) percent inhibition,MRGPRX2 [7],96%
same,maximum inhibition (antagonism) EDG3,EDG3 [8],36%
same,EDG3 (Antagonist) percent inhibition,EDG3 [9],42%

# From US20230000936A1, “A[…] ITCHING […] C[…]” (Demetrix, Inc., priority 2021, published 2023)
